Active and inactive are the calls of the source. Cut-off read from the data, not from the text of the source, for most assays here: actives have a measured EC50 and inactives only a lower limit.
Key:
[1] = target: T1, Carboxy-terminal domain RNA polymerase II polypeptide A small phosphatase 1 (Homo sapiens, UniProt Q9GZU7); assay: CTDSP1 inhibitors, concentration-response, biochemical, absorbance readout, ultra-high-throughput screen actives (AID 540297); type: functional
T1 sequence (Q9GZU7 whole entry): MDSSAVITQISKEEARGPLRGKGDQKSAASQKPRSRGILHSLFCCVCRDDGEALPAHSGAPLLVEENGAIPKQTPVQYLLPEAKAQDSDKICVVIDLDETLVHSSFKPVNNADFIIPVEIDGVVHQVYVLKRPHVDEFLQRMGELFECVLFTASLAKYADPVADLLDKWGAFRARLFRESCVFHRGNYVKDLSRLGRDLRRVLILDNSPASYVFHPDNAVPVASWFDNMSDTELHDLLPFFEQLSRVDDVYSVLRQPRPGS

Vero = assay: viability of Vero cells under compound – cytotoxicity control for flavivirus capping enzyme inhibitors (AID 588742); type: functional; settings: Chlorocebus sabaeus
[2] = target: T2, Corticotropin-releasing factor receptor 2/Corticotropin-releasing factor-binding protein (Homo sapiens, UniProt P24387+Q13324); assay: Dose Response confirmation of uHTS hits for small molecule antagonists of the CRF-binding protein and CRF-R2 receptor complex.; type: functional; settings: read-out: IC50_Mean
T2 sequence (Q13324 whole entry): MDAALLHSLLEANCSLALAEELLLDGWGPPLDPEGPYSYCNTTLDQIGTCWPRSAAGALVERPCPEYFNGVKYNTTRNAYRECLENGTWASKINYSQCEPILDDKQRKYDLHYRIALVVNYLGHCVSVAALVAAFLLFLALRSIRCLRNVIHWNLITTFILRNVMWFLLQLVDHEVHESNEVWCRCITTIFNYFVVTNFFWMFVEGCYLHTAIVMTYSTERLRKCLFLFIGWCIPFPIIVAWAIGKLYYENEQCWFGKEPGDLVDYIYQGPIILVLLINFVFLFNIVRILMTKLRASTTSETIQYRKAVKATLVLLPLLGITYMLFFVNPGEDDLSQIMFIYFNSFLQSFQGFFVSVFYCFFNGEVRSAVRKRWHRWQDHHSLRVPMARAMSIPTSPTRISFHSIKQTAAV
T2 sequence (P24387 whole entry): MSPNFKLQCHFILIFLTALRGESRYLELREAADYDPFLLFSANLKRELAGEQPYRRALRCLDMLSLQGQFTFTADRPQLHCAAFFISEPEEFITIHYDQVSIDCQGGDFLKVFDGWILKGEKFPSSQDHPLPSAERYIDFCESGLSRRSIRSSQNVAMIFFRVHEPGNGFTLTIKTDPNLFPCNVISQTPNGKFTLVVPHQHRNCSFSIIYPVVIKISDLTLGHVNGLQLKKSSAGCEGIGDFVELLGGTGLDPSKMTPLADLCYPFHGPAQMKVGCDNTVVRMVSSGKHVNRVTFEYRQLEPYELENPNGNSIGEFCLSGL

[3] = target: T2, Corticotropin-releasing factor receptor 2/Corticotropin-releasing factor-binding protein; assay: activators of CRF receptor 2 with binding protein – uHTS hits, confirmation (AID 602473); type: functional; settings: read-out: EC50_Mean
Genome polyprotein = Genome polyprotein (dengue virus type 2, UniProt P29990); assay: flavivirus cap methylation enzyme inhibition – biochemical, confirmation dose response, primary screen (AID 588689); type: functional
Genome polyprotein, sequence (P29990 2492-3391 limits assumed): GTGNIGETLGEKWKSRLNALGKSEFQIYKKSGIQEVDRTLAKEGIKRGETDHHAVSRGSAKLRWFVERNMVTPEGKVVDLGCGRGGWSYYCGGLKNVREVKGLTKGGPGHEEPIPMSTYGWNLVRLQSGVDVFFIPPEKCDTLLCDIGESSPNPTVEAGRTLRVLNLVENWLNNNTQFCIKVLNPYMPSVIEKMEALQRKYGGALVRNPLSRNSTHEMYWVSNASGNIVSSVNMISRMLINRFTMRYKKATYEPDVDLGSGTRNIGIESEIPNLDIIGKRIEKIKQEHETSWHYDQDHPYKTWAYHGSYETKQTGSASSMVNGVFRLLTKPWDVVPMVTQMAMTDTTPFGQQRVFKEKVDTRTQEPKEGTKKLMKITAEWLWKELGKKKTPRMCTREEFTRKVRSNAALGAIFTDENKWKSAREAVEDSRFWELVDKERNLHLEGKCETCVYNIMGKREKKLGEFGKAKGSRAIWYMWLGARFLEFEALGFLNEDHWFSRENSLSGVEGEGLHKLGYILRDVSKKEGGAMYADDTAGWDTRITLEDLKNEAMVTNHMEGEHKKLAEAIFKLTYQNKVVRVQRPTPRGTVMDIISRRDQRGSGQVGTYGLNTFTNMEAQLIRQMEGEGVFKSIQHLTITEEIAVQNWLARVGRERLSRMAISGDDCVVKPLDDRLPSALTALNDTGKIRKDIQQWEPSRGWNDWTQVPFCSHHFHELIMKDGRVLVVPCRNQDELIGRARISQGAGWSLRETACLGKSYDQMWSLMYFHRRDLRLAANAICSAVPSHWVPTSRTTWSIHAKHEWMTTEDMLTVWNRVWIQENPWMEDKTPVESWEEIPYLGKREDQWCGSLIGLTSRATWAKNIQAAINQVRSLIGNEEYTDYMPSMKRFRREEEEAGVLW

Protein RecA = target: T3, Protein RecA (Mycobacterium tuberculosis, UniProt P9WHJ3); assay: Fluorescence Cell-Free Homogeneous Dose Retest to Identify Inhibitors of RecA-Intein Splicing Activity. [Related pubchem assays (depositor defined):AID2097, AID2223, AID489010, AID492950]; type: functional
T3 sequence (P9WHJ3 whole entry): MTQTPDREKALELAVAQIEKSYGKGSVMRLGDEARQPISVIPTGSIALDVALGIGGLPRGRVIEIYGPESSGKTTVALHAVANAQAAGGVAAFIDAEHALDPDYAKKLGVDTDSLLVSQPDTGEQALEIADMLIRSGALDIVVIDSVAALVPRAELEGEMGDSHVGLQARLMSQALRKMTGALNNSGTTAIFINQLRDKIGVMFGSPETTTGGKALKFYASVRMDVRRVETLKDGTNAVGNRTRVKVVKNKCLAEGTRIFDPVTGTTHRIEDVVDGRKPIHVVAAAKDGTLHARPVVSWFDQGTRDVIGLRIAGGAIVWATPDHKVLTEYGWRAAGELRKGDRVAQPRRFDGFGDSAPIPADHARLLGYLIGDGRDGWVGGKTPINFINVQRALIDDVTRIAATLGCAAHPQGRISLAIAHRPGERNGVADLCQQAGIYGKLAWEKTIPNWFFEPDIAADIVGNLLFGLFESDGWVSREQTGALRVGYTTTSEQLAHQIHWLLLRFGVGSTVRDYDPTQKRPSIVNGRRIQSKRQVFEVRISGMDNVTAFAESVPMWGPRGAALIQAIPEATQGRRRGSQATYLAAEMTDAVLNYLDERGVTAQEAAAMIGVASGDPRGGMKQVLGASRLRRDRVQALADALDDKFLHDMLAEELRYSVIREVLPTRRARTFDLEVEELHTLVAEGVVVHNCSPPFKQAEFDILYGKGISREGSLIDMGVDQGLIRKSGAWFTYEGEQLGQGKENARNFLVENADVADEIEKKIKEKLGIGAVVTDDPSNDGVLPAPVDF

[4] = target: T4, Replicative DNA helicase DnaB (Mycobacterium tuberculosis, UniProt P9WMR3); assay: DnaB intein splicing inhibitors, dose response, biochemical, cell-free fluorescence (AID 449749); type: functional
T4 sequence (P9WMR3 whole entry): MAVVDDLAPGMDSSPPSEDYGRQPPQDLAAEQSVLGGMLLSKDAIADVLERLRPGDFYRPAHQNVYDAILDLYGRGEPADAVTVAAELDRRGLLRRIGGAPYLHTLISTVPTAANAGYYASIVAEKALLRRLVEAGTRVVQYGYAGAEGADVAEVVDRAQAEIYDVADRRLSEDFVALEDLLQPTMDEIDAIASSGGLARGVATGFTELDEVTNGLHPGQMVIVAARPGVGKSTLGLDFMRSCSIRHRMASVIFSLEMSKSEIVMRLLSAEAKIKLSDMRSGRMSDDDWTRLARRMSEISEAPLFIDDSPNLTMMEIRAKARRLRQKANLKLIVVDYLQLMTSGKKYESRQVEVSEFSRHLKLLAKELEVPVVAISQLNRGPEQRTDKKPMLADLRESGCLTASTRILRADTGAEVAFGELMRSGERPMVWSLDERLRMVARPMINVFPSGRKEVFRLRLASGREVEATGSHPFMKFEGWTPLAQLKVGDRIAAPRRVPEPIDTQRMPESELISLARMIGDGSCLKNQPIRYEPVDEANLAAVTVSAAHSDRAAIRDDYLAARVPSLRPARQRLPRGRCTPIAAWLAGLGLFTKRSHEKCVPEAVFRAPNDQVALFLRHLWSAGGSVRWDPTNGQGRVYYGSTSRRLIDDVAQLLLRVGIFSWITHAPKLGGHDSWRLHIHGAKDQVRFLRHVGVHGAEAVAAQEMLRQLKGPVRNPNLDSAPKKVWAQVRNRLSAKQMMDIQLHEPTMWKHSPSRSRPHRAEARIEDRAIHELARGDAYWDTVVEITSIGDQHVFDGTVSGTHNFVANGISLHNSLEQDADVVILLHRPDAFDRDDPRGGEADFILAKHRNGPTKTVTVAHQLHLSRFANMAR

[5] = Luminescence Cell-Based Dose Confirmation HTS to Identify Inhibitors of Platelet Dense Granule Release. [Related pubchem assays: 1663 (Primary HTS), 1678 (Summary of Project)]; type: functional
[6] = target: Luciferin 4-monooxygenase (Photinus pyralis, UniProt P08659); assay: inhibition of purified Photinus pyralis luciferase – biochemical, luminescence, dose response (AID 1891)
Luciferin 4-monooxygenase, sequence (P08659 whole entry): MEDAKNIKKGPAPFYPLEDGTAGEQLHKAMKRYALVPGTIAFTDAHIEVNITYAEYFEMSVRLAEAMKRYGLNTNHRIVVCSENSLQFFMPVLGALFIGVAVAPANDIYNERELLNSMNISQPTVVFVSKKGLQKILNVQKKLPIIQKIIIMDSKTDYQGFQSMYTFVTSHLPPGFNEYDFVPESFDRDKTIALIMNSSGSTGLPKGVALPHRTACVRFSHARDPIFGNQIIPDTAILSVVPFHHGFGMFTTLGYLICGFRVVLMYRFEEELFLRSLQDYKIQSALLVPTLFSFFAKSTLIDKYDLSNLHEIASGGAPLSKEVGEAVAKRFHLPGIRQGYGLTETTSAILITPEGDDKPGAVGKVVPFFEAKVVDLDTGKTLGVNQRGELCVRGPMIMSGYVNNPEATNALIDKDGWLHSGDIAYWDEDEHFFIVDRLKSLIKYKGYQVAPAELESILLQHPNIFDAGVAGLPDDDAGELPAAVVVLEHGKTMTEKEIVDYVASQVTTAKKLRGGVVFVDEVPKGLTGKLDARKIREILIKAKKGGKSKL

[7] = Trypanosoma cruzi growth suppression in host cells – NIH3T3 host cells, beta-gal luminescence, confirmation (AID 2044); type: functional, cell-based;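 note: intracellular parasites grown in NIH/3T3 mouse fibroblasts as host cells; luminescent beta-galactosidase reporter signal from transgenic T. cruzi replicating inside host cells; inhibitors lower the luminescence signal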
[8] = NIH3T3 cell viability loss – ATP luminescence, mouse fibroblasts, counter-screen, dose response (AID 2010); type: functional, cell-based;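 note: cells exposed to compound for about 90 hours before reading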
[9] = target: Glyceraldehyde-3-phosphate dehydrogenase (Homo sapiens, UniProt P04406)
Glyceraldehyde-3-phosphate dehydrogenase, sequence (P04406 whole entry): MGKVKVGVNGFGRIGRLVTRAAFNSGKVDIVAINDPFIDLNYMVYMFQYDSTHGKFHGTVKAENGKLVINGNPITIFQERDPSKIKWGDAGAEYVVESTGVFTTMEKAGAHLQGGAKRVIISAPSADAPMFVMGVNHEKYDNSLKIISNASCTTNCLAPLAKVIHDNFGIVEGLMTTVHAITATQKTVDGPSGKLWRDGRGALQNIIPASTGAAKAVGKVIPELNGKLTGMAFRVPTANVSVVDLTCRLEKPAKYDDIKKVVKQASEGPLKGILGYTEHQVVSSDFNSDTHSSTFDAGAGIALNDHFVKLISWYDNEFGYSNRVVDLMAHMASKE

[10] = Luminescence Cell-Based Dose Confirmation HTS to Identify Activators of 5'UTR Stem-Loop Driven Alpha-Synuclein mRNA Translation in H4 Neuroglioblastoma Cells. [Related pubchem assays: 1829 (Project Summary), 1814 (Primary HTS)]; type: functional
[11] = Luminescence Cell-Based Dose Response HTS to Identify Activators of Luciferase Translation or Activity in H4 […] Cells. [Related pubchem assays: 1829 (Project Summary), 1814 (Primary HTS)]; type: functional
H4 = assay: Luminescence Cell-Based Dose Response HTS to Identify Activators of 5'UTR Stem-Loop Driven Prion Protein mRNA Translation in H4 Neuroglioblastoma Cells. [Related pubchem assays: 1829 (Project Summary), 1814 (Primary HTS)]; type: functional; settings: Homo sapiens
[12] = viability loss in THP-1 monocytes – THP-1 cells, cytotoxicity control for Vif-APOBEC3G degradation inhibitor project, dose response (AID 1117359); type: functional; settings: THP-1
[13] = viability of uninfected HEp-2 cells – cell-based, HTS, cytotoxicity control for RSV inhibitor project, dose response (AID 2410); type: functional; settings: human respiratory syncytial virus

## O=C(O)c1ccc(CNc2ccccc2C(=O)O)cc1
[1]
  IC50: 25.3 µM (active)

## CC1=NN(C(N)=S)C(=O)C1N=Nc1cccc(Cl)c1C (stereo unspecified)
Vero
  CC50: > 40 µM (active)

## COC(=O)c1cc(OC)c(OC)cc1NC(=O)C(C)Sc1ccc(C)cc1 (stereo unspecified)
[2]
  IC50: > 47.1 µM (inactive)
[3]
  EC50: > 53 µM (inactive)

## O=C(CCN1C(=O)/C(=C/c2ccc3c(c2)OCO3)SC1=S)Nc1cccc(C(=O)O)c1
Genome polyprotein
  IC50: 47 µM (active)
[1]
  IC50: 6.78 µM (active)

## CCOc1ccc(/C=C2\SC(=S)N(CCC(=O)Nc3ccccc3C(=O)O)C2=O)cc1
Protein RecA
  EC50: 15.1 µM (active)
Genome polyprotein
  IC50: 29.3 µM (active)
[4]
  AC50: 6.1 µM (active)
[1]
  IC50: 4.86 µM (active)

## Cc1ccc2[nH]c(/C(C#N)=C/c3ccc(-c4ccccc4C(=O)O)o3)nc2c1
[1]
  IC50: 17 µM (active)

## O=C(c1ccccc1)c1ccc2[nH]c(-c3ccc(NC(=O)c4ccccc4F)cc3)nc2c1
[5]
  EC50: > 112 µM (not active)
[6]
  EC50: > 112 µM (not active)

## O=C(Nc1cccc(N2CCCC2)c1)c1cccs1
[7]
  EC50: 4.67 µM (active)
[5]
  EC50: > 112 µM (not active)
[8]
  EC50: > 60 µM (not active)
[6]
  EC50: > 112 µM (not active)

## NS(=O)(=O)c1ccc(NC(=O)COc2ccccc2)cc1
[9]
  IC50: > 100 µM (not active)

## CC(=O)c1ccc(NC(=O)CCc2nnc3ccc(N4CCC5(CC4)OCCO5)nn23)cc1
[2]
  IC50: > 47.1 µM (inactive)
[3]
  EC50: > 53 µM (inactive)

## O=C(CN(CCCN1CCOCC1)C(=O)Cn1nnc(-c2ccc(F)cc2)n1)NC1CCCCC1
[5]
  EC50: > 112 µM (not active)
[6]
  EC50: > 112 µM (not active)

## COc1ccc(NC(=O)C(Sc2ccccc2)c2ccccc2)c(OC)c1 (stereo unspecified)
[2]
  IC50: > 47.1 µM (inactive)
[3]
  EC50: > 53 µM (inactive)

## c1ccc(CN2CCC(NC3=NN=C(c4ccc5c(c4)OCCO5)CS3)CC2)cc1
[10]
  EC50: 12.5 µM (active)
[11]
  EC50: > 120 µM (not active)
H4
  EC50: 48.5 µM (active)

## O=C1c2ccccc2C(Nc2ccc3c(c2)OCO3)N1Cc1ccco1 (stereo unspecified)
[5]
  EC50: > 112 µM (not active)
[6]
  EC50: > 112 µM (not active)

## COC(=O)c1ccc(C)c(NC(=O)CSc2sc3c(O)cc(=O)[nH]c3c2C#N)c1
[1]
  IC50: 3.04 µM (active)

## Cc1ccccc1CCNC(=O)c1ccc(Cl)c(S(=O)(=O)N2CC(C)OC(C)C2)c1 (stereo unspecified)
[12]
  CC50: > 40 µM (active)

## COc1ccccc1NC(=O)CSc1nnc(CNC(=O)c2ccco2)o1
[2]
  IC50: > 47.1 µM (inactive)
[3]
  EC50: > 53 µM (inactive)

## CC1C/C(=C/c2ccco2)C(=O)/C(=C/c2ccco2)C1 (stereo unspecified)
[12]
  CC50: > 40 µM (active)

## CCc1ccc(-c2cc(C)no2)cc1S(=O)(=O)N1CCN(c2ccccc2OC)CC1
[5]
  EC50: > 112 µM (not active)
[6]
  EC50: > 112 µM (not active)

## Cc1ccc(C2CC(c3ccccc3)=NN2C(=O)CSc2nnc(-c3ccc(Cl)cc3)o2)o1 (stereo unspecified)
[5]
  EC50: > 112 µM (not active)
[6]
  EC50: > 112 µM (not active)

## O=C(Nc1cccc(S(=O)(=O)N2CCCCC2)c1)c1ccc(S(=O)(=O)C(F)F)cc1
[2]
  IC50: > 47.1 µM (inactive)
[3]
  EC50: > 53 µM (inactive)

## Cc1ccc(S(=O)(=O)N2[C@@H](c3ccc(Br)cc3)C(C(=O)O)=C[C@H]2CC2CCCC2)cc1
Genome polyprotein
  IC50: 37 µM (active)
Vero
  CC50: > 40 µM (active)

## Cc1c(Cl)cccc1N1C(=O)c2ccccc2C1=O
[2]
  IC50: > 47.1 µM (inactive)
[3]
  EC50: > 53 µM (inactive)

## CC1=C(SCc2ccccc2)C(=O)c2ccccc2C1=O
[12]
  CC50: 34.6 µM (active)
Genome polyprotein
  IC50: 76.8 µM (active)
Vero
  CC50: > 40 µM (active)

## COc1ccc(Cl)cc1C=CC=NNC(=O)c1ccncc1
[1]
  IC50: 18.9 µM (active)

## O=C1C(=Cc2ccncc2)CCCc2ccccc21
[2]
  IC50: > 47.1 µM (inactive)
[3]
  EC50: > 53 µM (inactive)

## C=C(C)CNC(=S)N/N=C(\C)c1ccc(OC)cc1
[5]
  EC50: 30.5 µM (active)
[6]
  EC50: > 112 µM (not active)

## C/C(=N\NC(=O)c1ccc(NS(=O)(=O)c2cccs2)cc1)c1ccc2ccccc2c1
[5]
  EC50: > 112 µM (not active)
[13]
  CC50: 16.7 µM (active)
[6]
  EC50: > 112 µM (not active)

## N#Cc1c(/N=C/c2ccc(-c3ccccc3C(=O)O)o2)sc2c1CCCC2
[1]
  IC50: 9.17 µM (active)

Reference: ChEMBL document CHEMBL1201862, “PubChem BioAssay data set” (2004)
